The numbers were not newly measured in patent US20090241222A1, “TANDEM REAPEAT DNA CONSTRUCTS PRODUCING PROTEINS THAT ATTACK PLANT PATHOGENIC VIRUSES, FUNGI, AND BACTERIA BY DISRUPTING TRANSCRIPTION FACTORS ESSENTIAL FOR REPLICATION THEREOF IN PLANTS” (priority 2008, published 2009), which cites them from elsewhere.

In the series the test system is Magnaporthe grisea. The following applies: PA treated plants; cited from earlier work.

On to `O=C(O)c1ccccn1` [picolinic acid, 2-pyridine carboxylic acid], for which the “resistance against M. grisea” value was “enhanced”.
